Data set [1] can be described thus: Toxicity study in mice. The data set is classed as in vivo, C3Hj mice. As to conditions: for animal body weight: more than 20 days. Here is the method: In order to evaluate the toxicity of the compound of the invention, an in vivo assay with mice was carried out. Animals treated with 4MUR were kept healthy during all the experimental protocol.
Briefly, C3Hj mice untreated (n=4) or treated with 4MU (n=4) or 4MUR (n=5) were used to assess its toxicology profile. Mice weight was supervised for more than 20 days. At the end of the experiments, healthy mice or mice receiving 4MU/4MUR were sacrificed to collect liver, spleen, heart, lung, and kidney samples. Tissue sections from liver, spleen, heart, and lungs were paraffin-embedded and H&E staining procedure was performed using standard protocols.

In data set [2] the test system is Hepa129 cells. Briefly: Apoptosis by acridine orange/ethidium bromide staining, Hepa129. It counts as cell-based, murine. As to conditions: 48h; for induction of apoptosis: Hepa129, 0.1 mM; for cells showing death by apoptosis: Hepa129, 1 mM. The protocol:
On the other hand, it was examined if growth inhibition by 4MUR was due to induction of apoptosis. To this end, cells were stained with an orange solution of acridine-ethidium bromide (Acridine Orange (NA)/Ethidium Bromide (BrEt) staining) and were then visualized by fluorescence microscopy to analyze their morphological characteristics. Briefly, after 48h of treatment, the cells were incubated with a mixture of NA/BrEt (1 ug/ml) and were then observed under a fluorescence microscope (Nikon). Viable cells are permeable to NA and are stained green. Cells with an altered plasma membrane allow BrEt to enter, which displaces NA, staining the cell orange. The percentage of viable or apoptotic cells was counted for each treatment.

The subject of data set [3] is orthotopic Hepa129 tumors. Nature of the data set: Orthotopic hepatocellular carcinoma model associated with advanced fibrosis induced by TAA. The data set is classed as in vivo, C3H/He mice. To be noted: for tumor volume: 20 mg/Kg i.p. 3 times a week, day 21 post Hepa129 inoculation; for animals in which tumors were not detected macroscopically: day 21 post-Hepa129; for animal survival: Day 20, FIG. 12C; for fibrosis degree measured by collagen deposits (Sirius red): liver sections. The protocol: To assess the in vivo antitumoral efficacy of 4MUR, an orthotopic tumor model associated with advanced fibrosis induced by TAA was established
C3H/He mice were intraperitoneally (i.p.) treated with 20 mg/kg thioacetamide (TAA) 3 times a week, for 4 weeks, in order to induce liver fibrosis. On day 28, mice were anesthetized and underwent surgery and orthotopic tumors were established by subcapsular intrahepatic inoculation of 1.25×10^5 Hepa129 cells into the left lobe of the liver (Day 0).
Between day 5 and day 7 post-administration of the cells, animals were again subjected to surgery for observing tumor development. Mice were divided into 3 groups (n=5) and each group received: (1) Saline solution (control); (2) 4MU dissolved in water, at a dose of 20 mg/Kg; (3) 4MUR dissolved in water at a dose of 20 mg/Kg. Intraperitoneal administration for different groups began on day 5 and was performed 3 times a week, until the end of the experiment on day 21 post Hepa129 inoculation. On day 21, animals were sacrificed, mice weight was recorded and ascites grade (mild, moderated, severe, and hemorrhagic), as well as tumor volume (mm^3), was calculated by the formula π/6×larger diameter×(smaller diameter)^2, by caliber measurement.
The 4MUR treatment on liver fibrogenesis was evaluated in the animal model. […] To assess the extent of liver fibrosis, formalin-fixed liver samples were embedded in paraffin and 5 μm sections were stained by Sirius Red for detection of fibrillar collagen. Quantitative analysis of Sirius red stained area was performed by computerized morphometric analysis. About 50 light microscope images (100× magnification) per specimen were captured and analyzed using the color threshold detection system developed in ImageJ software (NIH, USA). The results were expressed as percentage of positive area. Collagen deposition was quantified by morphometric analysis and densitometry.
To further understand the 4MUR effect on HCC, HA expression was evaluated in liver tissue sections of mice from the different groups by staining with an HA-binding protein (HA-BP). Negative controls were stained with bHA-BP and pretreated with 100 U/ml Streptomyces hyaluronidase (#385931, Calbiochem) at 37° C. for 30 min. Peroxidase complex (Sigma) 1:10 in PBS was used for developing. The signal was detected by 0.1% diaminobenzidine (Sigma-Aldrich, Buenos Aires, Argentina), 4% glucose, 0.08% ClNH4, 5% nickel ammonium sulfate in 0.2 M AcNa and 0.05% H2O2.

Data set [4] concerns HA in CFSC-2G cells. Briefly: HA content by flow cytometry, CFSC-2G. The data set is classed as cell-based, rat. To be noted: 0.25-1 mM, 48 h. The protocol:
The levels of HA were quantified in the activated stellate cells CFSC-2G. For this goal, HA was detected by incubation with HA-fluorescein iso-thiocyanate (FITC) (20 μg/100 μL, Calbiochem SA, Bs. As., Argentina). Cells were treated with 4MU or 4MUR 0.25-1 mM and fixed were analyzed by flow cytometry with a FACS Accuri, BD (Becton Dickinson Immunocytometry Systems), using the BD Accuri 6C™ software.
(In flow cytometry, cells or beads pass a laser one at a time.)

In data set [5] the test system is IHH (human hepatocytes cell line). Nature of the data set: Cell viability, IHH. As to conditions: IHH cells. The data set is classed as cell-based. Here is the method: (§1) In order to evaluate the therapeutic efficacy and potential cytotoxicity of the glycoconjugated drug of the invention for the treatment of HCC, cell viability assays were carried out in different cell lines. Chemiograms were performed using increasing doses of the compound 4-MU as well as the glycosylated compound 4MUR (0-2000 μM). Cell viability was measured by using the CellTiter kit (Promega Corporation). Proliferation was measured through a tritiated thymidine incorporation assay, by incubating the cells for 48 h with either one of the compounds (4MU/4MUR) or culture medium (RPMI) in the presence of 3H-thymidine (Migliore-LaClaustra).

In data set [6] the test system is HAS3. Briefly: HAS3 mRNA expression (RT-qPCR), CFSC-2G. It counts as cell-based, rat. As to conditions: CFSC-2G cells. Here is the method:
(§2) Since HAS mRNA levels often correspond to the activity of hyaluronan synthesis, the effect of 4MUR on HAS2 and HAS3 expression was assessed. To this end, cells with a concentration of 100,000 cells/ml were cultured on 6-well plates and treated with 4MUR (500 μM) for 24 h. Total RNA was extracted using the TriReagent (Sigma Aldrich) according to the manufacture's protocol. RNA was quantified at 260 nm in a DU®730 spectrophotometer (Beckman Coulter, Fullerton, CA, USA). The RNA purity was evaluated according to MIQE guidelines by measuring the ratio A260/A280. […] RT-qPCR for HAS2, HAS3 genes was performed using iQ SYBR Green Supermix protocol (Bio-Rad Laboratories, Milan, Italy). Each PCR amplification was carried out following manufactures instructions (iQ SYBR Green Supermix-Bio-Rad) in a Bio-Rad iQ5 real-time PCR detection system (iCycler IQ5 software, version 3.1; Bio-Rad) Expression was normalized to actin with two reference genes.
(Quantitative PCR measures a nucleic acid by following its amplification.)

For data set [7], the system named is HA in Hepa129 cells. Briefly: HA content by flow cytometry, Hepa129. It counts as cell-based, murine. To be noted: 48 h.
Data set [8] has as its system HAS2. Nature of the data set: HAS2 mRNA expression (RT-qPCR), CFSC-2G. The data set is classed as cell-based, rat. To be noted: CFSC-2G cells. The protocol:
as §2

Data set [9] concerns CFSC-2G (Rat hepatic stellate cell line). Nature of the data set: Cell viability, CFSC-2G. As to conditions: CFSC-2G cells. The data set is classed as cell-based. Here is the method: as §1

SMILES strings stand for the structures. “And” between values parts separate entries of the source, which are not always exact repeats. Equal values may be shown once.

As for `Cc1cc(=O)oc2cc(O)ccc12` [4MU, 4-Methylumbelliferone, reference compound], in [1], the “histology (H&E) of liver, kidney, lungs, spleen, heart” value is given as “no induced tissue damage” and the animal body weight entry was “no significant changes”. In data set [2], the induction of apoptosis result was “resistant” and the “cells showing death by apoptosis” value is 60%. Besides, in data set [3], the tumor volume is reported as 243.8±94.0 mm^3; the animal survival was 66% and 67%. For the same compound, in data set [3] (20 mg/Kg i.p.), the “animals in which tumors were not detected macroscopically” value was determined as 20% and the “fibrosis degree measured by collagen deposits (Sirius red)” value amounted to 0.53±0.04. Also, the HA level result in data set [4] is “significantly decreased”. Also, the IC50 (in general, the concentration that gives 50% inhibition) in data set [5] (Homo sapiens, Hepatocyte) amounted to 486 µM. Further, in data set [6], the HAS3 expression upregulation is 4.2 fold. For the same compound, the HA contents result in data set [7] is “significantly decreased”. Besides, the HAS2 upregulation entry in data set [8] was “around 5 fold”. In [9] (Rattus norvegicus), this compound gave a 50% inhibitory concentration (IC50) of 1160 µM.
Consider `Cc1cc(=O)oc2cc(O[C@@H]3O[C@H](CO[C@@H]4O[C@@H](C)[C@H](O)[C@@H](O)[C@H]4O)[C@@H](O)[C@H](O)[C@H]3O)ccc12` [4MUR, 4-methylumbelliferyl-rutinoside], for which, in data set [1], the “health of animals during the experimental protocol” value is given as “kept healthy”; the “histology (H&E) of liver, kidney, lungs, spleen, heart” value is given as “no induced tissue damage”; the animal body weight entry is “no significant changes”. In data set [2], the induction of apoptosis result was “significantly induced apoptosis” and the “cells showing death by apoptosis” value is given as 100%. For the same compound, in [3] (20 mg/Kg i.p.), the “HA expression in liver tissue (HA-BP staining)” value was “remarkable reduction”, the “animals in which tumors were not detected macroscopically” value is on record as 60% and the “fibrosis degree measured by collagen deposits (Sirius red)” value is given as 0.21±0.02. In data set [3], this compound returned a tumor volume of 113.5±77.8 mm^3 and an animal survival of 100%. Further, the “amount of ascitic fluid” value in [3] (compared with untreated mice and 4MU) is given as “significantly reduced”. Further, the “efficacy against hepatocellular carcinoma” value in data set [3] (i.p. 20 mg/kg/day) is listed as “efficient”. Further, in data set [4], the HA level result is reported as “significantly decreased”. In [5], the IC50 was greater than 2000 µM and the “increase of IC50 values of 4MUR compared to 4MU” value is given as 6.2 fold. In addition, in [6], the “HAS3 expression down regulation” value came to 4.5 fold. In data set [7], the HA contents entry was “significantly decreased”. Also, in [8], the HAS2 expression entry is listed as “did not affect”. Further, in data set [9], the IC50 is greater than 2000 µM and the “increase of IC50 values of 4MUR compared to 4MU” value is recorded as 25.8 fold.

The record behind these values is patent US20250222114A1, “GLYCOCONJUGATED DRUG FOR THE TREATMENT OF HEPATOCELLULAR CARCINOMA” (priority 2021, published 2025).
